# Compound: O=[As]([O-])(O)O.[K+] [potassium arsenate]
# Experiment: thermal stability z-score vs DMSO; higher = more thermally stabilized by treatment
# Settings: HeLa; arsenate concentration 1 mM
# Experimental: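 Cellular thermal proteome profiling in HeLa cells treated with 1 mM arsenate for 1 h (DMSO pretreatment), heated to ten temperatures (37-66.3 °C). Soluble protein was quantified by TMT mass spectrometry relative to DMSO controls; the thermal stability score was transformed to a z-score; mean of n = 3 experiments.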
# 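Further: each temperature applied for 3 min, abundance score taken as mean log2 fold change at the two lowest temperatures, z-score obtained by mean subtraction and division by SD.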
# Chain of UniProt P56378 (P56378 whole entry): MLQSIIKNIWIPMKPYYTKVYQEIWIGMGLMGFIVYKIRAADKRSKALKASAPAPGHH
# Chain of UniProt P53990 (P53990 whole entry): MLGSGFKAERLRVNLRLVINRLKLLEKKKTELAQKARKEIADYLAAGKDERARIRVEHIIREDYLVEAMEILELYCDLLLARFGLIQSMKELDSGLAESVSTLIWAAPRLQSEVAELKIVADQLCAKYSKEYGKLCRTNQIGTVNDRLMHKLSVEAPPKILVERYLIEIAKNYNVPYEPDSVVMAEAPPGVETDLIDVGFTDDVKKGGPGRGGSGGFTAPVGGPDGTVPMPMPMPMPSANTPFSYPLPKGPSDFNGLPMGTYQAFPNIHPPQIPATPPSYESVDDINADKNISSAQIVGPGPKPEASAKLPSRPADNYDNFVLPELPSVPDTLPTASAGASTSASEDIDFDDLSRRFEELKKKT
# Chain of UniProt Q96CG3 (Q96CG3 whole entry): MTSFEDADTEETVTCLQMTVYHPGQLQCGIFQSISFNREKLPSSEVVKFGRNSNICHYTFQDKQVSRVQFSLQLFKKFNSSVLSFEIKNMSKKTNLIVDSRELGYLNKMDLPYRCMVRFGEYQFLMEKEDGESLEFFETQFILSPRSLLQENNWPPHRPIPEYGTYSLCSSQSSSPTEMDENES
# Chain of UniProt Q6QNY0 (Q6QNY0 whole entry): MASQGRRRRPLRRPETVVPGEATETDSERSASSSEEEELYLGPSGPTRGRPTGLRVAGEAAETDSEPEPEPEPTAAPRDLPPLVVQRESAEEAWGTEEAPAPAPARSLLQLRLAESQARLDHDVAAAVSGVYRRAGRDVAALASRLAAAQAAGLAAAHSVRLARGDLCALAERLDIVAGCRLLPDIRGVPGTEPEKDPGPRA
# Chain of UniProt Q9NX57 (Q9NX57 whole entry): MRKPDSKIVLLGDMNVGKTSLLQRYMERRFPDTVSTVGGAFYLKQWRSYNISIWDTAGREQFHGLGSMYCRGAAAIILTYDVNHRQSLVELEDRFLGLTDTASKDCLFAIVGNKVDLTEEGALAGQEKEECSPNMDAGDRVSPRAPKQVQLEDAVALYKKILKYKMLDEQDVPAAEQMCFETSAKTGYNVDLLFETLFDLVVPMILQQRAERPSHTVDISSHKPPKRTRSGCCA
# Chain of UniProt Q8N488 (Q8N488 whole entry): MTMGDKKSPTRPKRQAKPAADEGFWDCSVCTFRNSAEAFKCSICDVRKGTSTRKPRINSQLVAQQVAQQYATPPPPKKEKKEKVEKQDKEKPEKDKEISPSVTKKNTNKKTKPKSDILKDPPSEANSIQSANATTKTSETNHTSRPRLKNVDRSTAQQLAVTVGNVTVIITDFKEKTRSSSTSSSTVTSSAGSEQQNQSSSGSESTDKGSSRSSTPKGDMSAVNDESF
# Chain of UniProt P28827 (P28827 whole entry): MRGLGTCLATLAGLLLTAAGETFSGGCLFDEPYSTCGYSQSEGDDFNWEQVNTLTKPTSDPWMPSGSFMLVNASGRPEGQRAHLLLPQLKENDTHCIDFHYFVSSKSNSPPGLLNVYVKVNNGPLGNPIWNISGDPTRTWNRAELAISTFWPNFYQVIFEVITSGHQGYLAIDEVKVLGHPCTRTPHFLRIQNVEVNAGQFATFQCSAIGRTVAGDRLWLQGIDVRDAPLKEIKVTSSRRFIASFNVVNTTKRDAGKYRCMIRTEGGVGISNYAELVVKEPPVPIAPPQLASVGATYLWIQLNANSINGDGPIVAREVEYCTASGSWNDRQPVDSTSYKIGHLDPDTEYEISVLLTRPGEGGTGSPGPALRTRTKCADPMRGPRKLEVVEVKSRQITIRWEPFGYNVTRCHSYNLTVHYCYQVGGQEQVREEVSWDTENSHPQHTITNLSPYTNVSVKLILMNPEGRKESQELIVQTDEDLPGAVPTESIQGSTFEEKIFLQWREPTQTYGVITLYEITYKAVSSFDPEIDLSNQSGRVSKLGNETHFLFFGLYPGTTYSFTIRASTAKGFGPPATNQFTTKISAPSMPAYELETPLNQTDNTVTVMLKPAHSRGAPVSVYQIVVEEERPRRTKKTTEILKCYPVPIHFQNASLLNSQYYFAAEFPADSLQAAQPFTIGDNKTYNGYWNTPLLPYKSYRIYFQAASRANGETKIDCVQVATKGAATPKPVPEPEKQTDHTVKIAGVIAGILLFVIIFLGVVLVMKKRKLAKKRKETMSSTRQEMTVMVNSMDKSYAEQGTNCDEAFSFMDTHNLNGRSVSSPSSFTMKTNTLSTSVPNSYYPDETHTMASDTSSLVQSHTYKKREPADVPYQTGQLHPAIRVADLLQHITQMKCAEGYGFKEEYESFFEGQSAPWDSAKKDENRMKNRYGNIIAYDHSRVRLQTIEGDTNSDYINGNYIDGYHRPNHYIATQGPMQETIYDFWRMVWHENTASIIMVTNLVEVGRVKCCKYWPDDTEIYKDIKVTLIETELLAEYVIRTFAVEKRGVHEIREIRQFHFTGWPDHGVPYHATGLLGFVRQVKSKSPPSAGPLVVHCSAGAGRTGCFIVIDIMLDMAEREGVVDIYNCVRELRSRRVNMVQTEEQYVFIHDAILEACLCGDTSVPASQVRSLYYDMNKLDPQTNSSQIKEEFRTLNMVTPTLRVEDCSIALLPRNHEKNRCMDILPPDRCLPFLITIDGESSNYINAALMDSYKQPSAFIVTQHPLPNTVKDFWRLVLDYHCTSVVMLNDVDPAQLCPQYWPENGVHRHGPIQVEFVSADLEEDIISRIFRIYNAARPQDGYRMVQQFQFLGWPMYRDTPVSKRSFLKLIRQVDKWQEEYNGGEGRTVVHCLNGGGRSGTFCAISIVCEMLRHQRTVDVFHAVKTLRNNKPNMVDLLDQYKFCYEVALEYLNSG
# Chain of UniProt Q15003 (Q15003 whole entry): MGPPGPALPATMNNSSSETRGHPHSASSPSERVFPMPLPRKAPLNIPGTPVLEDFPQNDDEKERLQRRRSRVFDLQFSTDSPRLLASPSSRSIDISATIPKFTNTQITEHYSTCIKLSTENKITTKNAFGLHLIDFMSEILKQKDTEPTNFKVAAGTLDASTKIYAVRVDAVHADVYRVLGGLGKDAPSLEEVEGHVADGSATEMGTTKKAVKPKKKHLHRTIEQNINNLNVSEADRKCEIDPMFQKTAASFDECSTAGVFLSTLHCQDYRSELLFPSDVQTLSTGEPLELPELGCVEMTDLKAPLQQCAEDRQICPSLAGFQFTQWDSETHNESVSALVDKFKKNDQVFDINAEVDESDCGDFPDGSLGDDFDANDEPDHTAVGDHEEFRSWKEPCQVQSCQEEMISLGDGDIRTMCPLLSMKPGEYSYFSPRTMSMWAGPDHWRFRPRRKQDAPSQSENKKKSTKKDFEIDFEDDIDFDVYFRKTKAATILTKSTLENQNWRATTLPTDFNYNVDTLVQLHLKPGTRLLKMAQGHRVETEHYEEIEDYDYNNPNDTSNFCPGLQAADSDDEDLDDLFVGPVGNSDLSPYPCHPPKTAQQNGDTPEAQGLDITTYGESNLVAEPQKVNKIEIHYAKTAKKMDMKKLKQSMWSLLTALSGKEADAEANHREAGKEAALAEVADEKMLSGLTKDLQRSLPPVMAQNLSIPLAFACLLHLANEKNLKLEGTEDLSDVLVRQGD
# Chain of UniProt Q9NRA2 (Q9NRA2 whole entry): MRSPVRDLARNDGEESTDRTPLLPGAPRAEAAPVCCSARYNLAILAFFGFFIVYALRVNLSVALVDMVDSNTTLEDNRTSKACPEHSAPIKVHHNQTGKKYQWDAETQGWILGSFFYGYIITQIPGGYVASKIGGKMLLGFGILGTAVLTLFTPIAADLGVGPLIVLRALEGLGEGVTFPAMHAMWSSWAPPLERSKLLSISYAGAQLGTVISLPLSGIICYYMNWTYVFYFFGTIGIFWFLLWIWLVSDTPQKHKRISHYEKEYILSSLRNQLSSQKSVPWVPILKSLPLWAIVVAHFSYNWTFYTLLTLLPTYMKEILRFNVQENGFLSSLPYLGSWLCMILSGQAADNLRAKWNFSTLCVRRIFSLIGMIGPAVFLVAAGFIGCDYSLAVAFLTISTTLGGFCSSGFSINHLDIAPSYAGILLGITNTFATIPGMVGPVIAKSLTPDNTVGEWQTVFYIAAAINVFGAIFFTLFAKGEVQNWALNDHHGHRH
# Chain of UniProt O95394 (O95394 whole entry): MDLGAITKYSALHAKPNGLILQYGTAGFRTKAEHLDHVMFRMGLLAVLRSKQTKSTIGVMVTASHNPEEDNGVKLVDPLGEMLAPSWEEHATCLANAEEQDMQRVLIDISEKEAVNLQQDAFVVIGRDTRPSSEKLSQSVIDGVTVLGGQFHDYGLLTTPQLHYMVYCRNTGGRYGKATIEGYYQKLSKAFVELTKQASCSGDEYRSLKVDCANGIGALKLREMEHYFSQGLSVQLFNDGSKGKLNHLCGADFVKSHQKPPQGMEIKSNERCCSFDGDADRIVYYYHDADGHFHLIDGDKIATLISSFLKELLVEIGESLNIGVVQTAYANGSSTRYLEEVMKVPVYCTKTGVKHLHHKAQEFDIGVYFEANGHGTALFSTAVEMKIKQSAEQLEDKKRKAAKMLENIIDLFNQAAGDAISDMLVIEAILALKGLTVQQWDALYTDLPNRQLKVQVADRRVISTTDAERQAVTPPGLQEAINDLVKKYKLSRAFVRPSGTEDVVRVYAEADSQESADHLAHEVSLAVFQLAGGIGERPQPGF
# Chain of UniProt Q9UET6 (Q9UET6 whole entry): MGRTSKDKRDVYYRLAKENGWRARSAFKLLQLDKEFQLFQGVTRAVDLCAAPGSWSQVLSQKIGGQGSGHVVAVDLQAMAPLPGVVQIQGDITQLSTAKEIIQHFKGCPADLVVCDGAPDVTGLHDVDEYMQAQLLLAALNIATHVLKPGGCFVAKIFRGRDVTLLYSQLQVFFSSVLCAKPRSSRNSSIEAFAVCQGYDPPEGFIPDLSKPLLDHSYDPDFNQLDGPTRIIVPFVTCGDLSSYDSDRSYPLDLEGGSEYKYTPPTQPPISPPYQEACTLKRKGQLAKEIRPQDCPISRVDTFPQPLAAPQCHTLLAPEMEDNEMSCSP
# Chain of UniProt Q5RI15 (Q5RI15 whole entry): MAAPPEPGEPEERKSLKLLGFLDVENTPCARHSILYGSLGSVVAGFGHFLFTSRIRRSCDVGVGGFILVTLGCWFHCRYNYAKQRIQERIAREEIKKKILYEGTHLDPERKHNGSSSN
row,Target,thermal stability z-score
1,DBN1 (UniProt Q16643),-0.684
2,SLC17A5 (UniProt Q9NRA2),-0.982
3,C7ORF50 (UniProt Q9BRJ6),-0.593
4,EGFR (UniProt P00533),-1.02
5,CD9 (UniProt P21926),0.251
6,KIAA0586 (UniProt Q9BVV6),-0.133
7,NENF (UniProt Q9UMX5),-0.0969
8,TIFA (UniProt Q96CG3),-0.879
9,AIFM1 (UniProt O95831),0.186
10,NCAPH (UniProt Q15003),0.387
11,TYW3 (UniProt Q6IPR3),-0.177
12,STAU1 (UniProt O95793),-0.275
13,SCML2 (UniProt Q9UQR0),-0.22
14,TBL2 (UniProt Q9Y4P3),0.366
15,PLIN2 (UniProt Q99541),2.1
16,OS9 (UniProt Q13438),0.706
17,VAMP4 (UniProt O75379),0.236
18,RYBP (UniProt Q8N488),-0.269
19,ZNF217 (UniProt O75362),-0.589
20,MP68 (UniProt P56378),1.15
21,CEP44 (UniProt Q9C0F1),0.0867
22,FTSJ1 (UniProt Q9UET6),-0.793
23,VAV2 (UniProt P52735),0.835
24,C1ORF174 (UniProt Q8IYL3),-0.845

row,Target,thermal stability z-score
1,NNT (UniProt Q13423),0.0461
2,IST1 (UniProt P53990),0.351
3,RAB20 (UniProt Q9NX57),-0.306
4,RNF216 (UniProt Q9NWF9),0.679
5,BLOC1S3 (UniProt Q6QNY0),0.0424
6,DNAJC1 (UniProt Q96KC8),-0.725
7,COX20 (UniProt Q5RI15),-0.19
8,UQCRC2 (UniProt P22695),-2.47
9,SMAD4 (UniProt Q13485),-0.746
10,AKAP2,-0.839
11,SRRM1 (UniProt Q8IYB3),-2.14
12,CEBPZ (UniProt Q03701),-1.01
13,SIN3A (UniProt Q96ST3),-0.303
14,BCL7B (UniProt Q9BQE9),0.537
15,ATAD1 (UniProt Q8NBU5),0.641
16,ZFYVE16 (UniProt Q7Z3T8),-0.676
17,CDH10 (UniProt Q9Y6N8),1.02
18,PTPRM (UniProt P28827),0.672
19,FBLN1 (UniProt P23142),1.29
20,BTBD1 (UniProt Q9H0C5),0.0567
21,FOXP4 (UniProt Q8IVH2),0.363
22,CAP2 (UniProt P40123),0.329
23,ZDHHC20 (UniProt Q5W0Z9),0.242
24,DVL2 (UniProt O14641),-0.113

row,Target,thermal stability z-score
1,ARL6 (UniProt Q9H0F7),0.202
2,TXNDC17 (UniProt Q9BRA2),0.728
3,ADSS (UniProt P30520),-1.32
4,MTFR1 (UniProt Q15390),0.165
5,MRPS6 (UniProt P82932),-0.516
6,PCYOX1 (UniProt Q9UHG3),0.0412
7,RCC1 (UniProt P18754),-0.548
8,NUP133 (UniProt Q8WUM0),-0.139
9,PEO1 (UniProt Q96RR1),0.122
10,LAMB1 (UniProt P07942),0.724
11,SGMS2 (UniProt Q8NHU3),-1.22
12,FUT8 (UniProt Q9BYC5),0.521
13,PCCB (UniProt P05166),-0.873
14,RBMX (UniProt P38159),-0.366
15,NCOA2 (UniProt Q15596),-0.284
16,GOT1 (UniProt P17174),0.118
17,HOOK3 (UniProt Q86VS8),-0.272
18,MCUR1 (UniProt Q96AQ8),-0.0449
19,KIF15 (UniProt Q9NS87),0.921
20,DHX9 (UniProt Q08211),-1.4
21,B3GALNT2 (UniProt Q8NCR0),-1.27
22,LACE1 (UniProt Q8WV93),-0.0299
23,TLDC1 (UniProt Q6P9B6),-0.238
24,PGM3 (UniProt O95394),0.188

# Compound: NC(=O)CCCCC1CCSS1 [lipoamide]
# Experiment: as above
# Settings: HeLa; lipoamide concentration 100 µM; arsenate co-treatment: 1 mM arsenate 1 h
# Experimental: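 Cellular thermal proteome profiling in HeLa cells. Cells were treated with 100 µM lipoamide for 1 h, with or without 1 mM arsenate for a further 1 h, then heated to ten temperatures (37-66.3 °C), and soluble protein was quantified by TMT mass spectrometry relative to 0.1% DMSO controls. The thermal stability score (sum of log2 fold changes minus the abundance score) was transformed to a z-score; mean of n = 3 experiments.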
row,Target,thermal stability z-score
1,DBN1 (UniProt Q16643),0.625
2,SLC17A5 (UniProt Q9NRA2),0.265
3,C7ORF50 (UniProt Q9BRJ6),-0.995
4,EGFR (UniProt P00533),-1.07
5,CD9 (UniProt P21926),1.93
6,KIAA0586 (UniProt Q9BVV6),0.234
7,NENF (UniProt Q9UMX5),0.318
8,TIFA (UniProt Q96CG3),-0.71
9,AIFM1 (UniProt O95831),-0.464
10,NCAPH (UniProt Q15003),-1.04
11,TYW3 (UniProt Q6IPR3),-0.419
12,STAU1 (UniProt O95793),-1.06
13,SCML2 (UniProt Q9UQR0),-0.0267
14,TBL2 (UniProt Q9Y4P3),-0.257
15,PLIN2 (UniProt Q99541),0.587
16,OS9 (UniProt Q13438),-3.59
17,VAMP4 (UniProt O75379),1.45
18,RYBP (UniProt Q8N488),-0.607
19,ZNF217 (UniProt O75362),-0.058
20,MP68 (UniProt P56378),0.962
21,CEP44 (UniProt Q9C0F1),0.18
22,FTSJ1 (UniProt Q9UET6),-0.787
23,VAV2 (UniProt P52735),0.0635
24,C1ORF174 (UniProt Q8IYL3),-2.39

row,Target,thermal stability z-score
1,NNT (UniProt Q13423),0.176
2,IST1 (UniProt P53990),0.453
3,RAB20 (UniProt Q9NX57),-0.495
4,RNF216 (UniProt Q9NWF9),-0.0849
5,BLOC1S3 (UniProt Q6QNY0),0.923
6,DNAJC1 (UniProt Q96KC8),-0.436
7,COX20 (UniProt Q5RI15),-0.11
8,UQCRC2 (UniProt P22695),0.268
9,SMAD4 (UniProt Q13485),-0.233
10,AKAP2,1.28
11,SRRM1 (UniProt Q8IYB3),0.79
12,CEBPZ (UniProt Q03701),0.161
13,SIN3A (UniProt Q96ST3),-0.000782
14,BCL7B (UniProt Q9BQE9),3.46
15,ATAD1 (UniProt Q8NBU5),0.216
16,ZFYVE16 (UniProt Q7Z3T8),-0.45
17,CDH10 (UniProt Q9Y6N8),0.493
18,PTPRM (UniProt P28827),0.782
19,FBLN1 (UniProt P23142),-2.93
20,BTBD1 (UniProt Q9H0C5),-0.0349
21,FOXP4 (UniProt Q8IVH2),-0.605
22,CAP2 (UniProt P40123),0.00549
23,ZDHHC20 (UniProt Q5W0Z9),0.527
24,DVL2 (UniProt O14641),-0.0654

row,Target,thermal stability z-score
1,ARL6 (UniProt Q9H0F7),0.197
2,TXNDC17 (UniProt Q9BRA2),0.493
3,ADSS (UniProt P30520),0.449
4,MTFR1 (UniProt Q15390),-0.301
5,MRPS6 (UniProt P82932),-0.216
6,PCYOX1 (UniProt Q9UHG3),0.606
7,RCC1 (UniProt P18754),-0.231
8,NUP133 (UniProt Q8WUM0),-0.312
9,PEO1 (UniProt Q96RR1),-0.0405
10,LAMB1 (UniProt P07942),-3.22
11,SGMS2 (UniProt Q8NHU3),-1.39
12,FUT8 (UniProt Q9BYC5),-0.561
13,PCCB (UniProt P05166),0.673
14,RBMX (UniProt P38159),1.51
15,NCOA2 (UniProt Q15596),-0.239
16,GOT1 (UniProt P17174),0.656
17,HOOK3 (UniProt Q86VS8),-0.807
18,MCUR1 (UniProt Q96AQ8),0.853
19,KIF15 (UniProt Q9NS87),-0.328
20,DHX9 (UniProt Q08211),0.398
21,B3GALNT2 (UniProt Q8NCR0),-0.788
22,LACE1 (UniProt Q8WV93),0.0464
23,TLDC1 (UniProt Q6P9B6),-0.455
24,PGM3 (UniProt O95394),0.0643

# Same assay, conditions: HeLa; lipoamide concentration 100 µM; arsenate co-treatment: none
row,Target,thermal stability z-score
1,DBN1 (UniProt Q16643),-0.407
2,SLC17A5 (UniProt Q9NRA2),0.076
3,C7ORF50 (UniProt Q9BRJ6),-0.353
4,EGFR (UniProt P00533),-0.989
5,CD9 (UniProt P21926),1.62
6,KIAA0586 (UniProt Q9BVV6),0.264
7,NENF (UniProt Q9UMX5),-0.406
8,TIFA (UniProt Q96CG3),-0.0546
9,AIFM1 (UniProt O95831),-0.558
10,NCAPH (UniProt Q15003),-0.316
11,TYW3 (UniProt Q6IPR3),0.332
12,STAU1 (UniProt O95793),-0.199
13,SCML2 (UniProt Q9UQR0),-0.0968
14,TBL2 (UniProt Q9Y4P3),0.0669
15,PLIN2 (UniProt Q99541),0.338
16,OS9 (UniProt Q13438),-3.15
17,VAMP4 (UniProt O75379),1.92
18,RYBP (UniProt Q8N488),-0.174
19,ZNF217 (UniProt O75362),0.343
20,MP68 (UniProt P56378),0.921
21,CEP44 (UniProt Q9C0F1),0.0577
22,FTSJ1 (UniProt Q9UET6),-0.171
23,VAV2 (UniProt P52735),0.172
24,C1ORF174 (UniProt Q8IYL3),-1.46

row,Target,thermal stability z-score
1,NNT (UniProt Q13423),0.166
2,IST1 (UniProt P53990),0.367
3,RAB20 (UniProt Q9NX57),-0.609
4,RNF216 (UniProt Q9NWF9),0.015
5,BLOC1S3 (UniProt Q6QNY0),0.625
6,DNAJC1 (UniProt Q96KC8),-0.516
7,COX20 (UniProt Q5RI15),-0.155
8,UQCRC2 (UniProt P22695),-0.0661
9,SMAD4 (UniProt Q13485),-0.519
10,AKAP2,0.638
11,SRRM1 (UniProt Q8IYB3),0.714
12,CEBPZ (UniProt Q03701),-0.141
13,SIN3A (UniProt Q96ST3),0.0569
14,BCL7B (UniProt Q9BQE9),2.78
15,ATAD1 (UniProt Q8NBU5),0.454
16,ZFYVE16 (UniProt Q7Z3T8),0.222
17,CDH10 (UniProt Q9Y6N8),0.14
18,PTPRM (UniProt P28827),1.16
19,FBLN1 (UniProt P23142),-2.25
20,BTBD1 (UniProt Q9H0C5),0.00713
21,FOXP4 (UniProt Q8IVH2),-0.281
22,CAP2 (UniProt P40123),-0.126
23,ZDHHC20 (UniProt Q5W0Z9),0.247
24,DVL2 (UniProt O14641),-0.194

row,Target,thermal stability z-score
1,ARL6 (UniProt Q9H0F7),0.233
2,TXNDC17 (UniProt Q9BRA2),0.408
3,ADSS (UniProt P30520),-0.203
4,MTFR1 (UniProt Q15390),0.52
5,MRPS6 (UniProt P82932),-0.13
6,PCYOX1 (UniProt Q9UHG3),-0.723
7,RCC1 (UniProt P18754),-0.0308
8,NUP133 (UniProt Q8WUM0),-0.456
9,PEO1 (UniProt Q96RR1),0.0511
10,LAMB1 (UniProt P07942),-2.66
11,SGMS2 (UniProt Q8NHU3),-0.337
12,FUT8 (UniProt Q9BYC5),-0.0456
13,PCCB (UniProt P05166),-0.198
14,RBMX (UniProt P38159),0.311
15,NCOA2 (UniProt Q15596),-0.0592
16,GOT1 (UniProt P17174),0.623
17,HOOK3 (UniProt Q86VS8),-0.326
18,MCUR1 (UniProt Q96AQ8),1.15
19,KIF15 (UniProt Q9NS87),-0.386
20,DHX9 (UniProt Q08211),1.65
21,B3GALNT2 (UniProt Q8NCR0),-0.394
22,LACE1 (UniProt Q8WV93),0.0601
23,TLDC1 (UniProt Q6P9B6),-0.204
24,PGM3 (UniProt O95394),-0.0248

# From the supplement of paper PMC12463676, “Small-molecule dissolution of stress granules by redox modulation benefits ALS models” (Nature Chemical Biology, 2025)
